Tests used:
ATR = experiment: activation kinetics of ATR (Western blot), HCT116/p53+/+; type: cell-based, human; conditions: 0.5 µM, after 1 hour
Excerpt: To determine the degree of involvement of p53 in the possible effects caused by FM19G11, a HCT116 colon cancer cell line with expression of p53 and the same HCT116 line in which p53 was inactivated by homologous recombination were used (Bunz, F, Dutriaux, A, Lengauer, C, Waldman, T, Zhou, S, Brown, JP et al., (1998) Requirement for p53 and p21 to sustain G2 arrest after DNA damage. Science 282: 1497-501; Bunz, F, Hwang, PM, Torrance, C, Waldman, T, Zhang, Y, Dillehay, L et al., (1999) Disruption of p53 in human cancer cells alters the responses to therapeutic agents. J Clin Invest 104: 263-9.). The HCT116/p53^+/+ and HCT116/p53^-/- cells were exposed to FM19G11 (0.5 µM) at different times, the phosphorylation (activation) pattern of the ATR protein and of p53 which can be phosphorylated by ATR (Tibbetts, RS, Brumbaugh, KM, Williams, JM, Sarkaria, JN, Cliby, WA, Shieh, SY et al., (1999) A role for ATR in the DNA damage-induced phosphorylation of p53. Genes Dev 13: 152-7.), in p53-proficient HCT116 cells, as well as ATR in p53-deficient cells being analyzed (Figure 23). […] This quick activation of ATR coincides with that of p53 in HCT116/p53^+/+ cells after 1 hour of treatment with FM19G11 (0.5 µM), but the activation of p53 remains virtually on the expression of cells without drug, for the different times analyzed.

HCT116/p53+/+ cells = experiment: cell cycle distribution by flow cytometry, HCT116/p53+/+; type: cell-based, human
Excerpt: It was investigated if the activation of DDR by FM19G11 caused a delay in the cycle progress through the G1/S phases in HCT116 tumor cells, as has been described for other DNA-damaging agents (.Lim, DS, Kim, ST, Xu, B, Maser, RS, Lin, J, Petrini, JH et al., (2000) ATM phosphorylates p95/nbs1 in an S-phase checkpoint pathway. Nature 404: 613-7.; Jazayeri, A, Falck, J, Lukas, C, Bartek, J, Smith, GC, Lukas, J et al., (2006) ATM- and cell cycle-dependent regulation of ATR in response to DNA double-strand breaks. Nat Cell Biol 8: 37-45; Liu, JS, Kuo, SR, Beerman, TA and Melendy, T, (2003) Induction of DNA damage responses by adozelesin is S phase-specific and dependent on active replication forks. Mol Cancer Ther 2: 41-7; Ranjan, P and Heintz, NH, (2006) S-phase arrest by reactive nitrogen species is bypassed by okadaic acid, an inhibitor of protein phosphatases PP1/PP2A. Free Radic Biol Med 40: 247-59.). The HCT116 p53+/+ and HCT116 p53-/- cells were exposed for 3 or 6 days to the carrier (DMSO) or to FM19G11 (0.5, 1, 5, 10 µM). […] (Figure 24).
A- The HCT116/p53+/+ cells and B-HCT116/p53-/- cells were exposed to different concentrations of FM19G11 (0.5, 1, 5, 10 µM) or carrier for 3 or 6 days to analyze the distribution of cells in the different cell cycle phases by means of flow cytometry. […]

HCT116/p53-/- = experiment: anchorage-independent growth in semisolid agar, HCT116/p53-/-; type: cell-based, human; conditions: 0.5 µM, 10 days, versus DMSO
Description: Anchorage-independent cell growth is a study which allows predicting the tumorigenicity of tumor cells in vivo. Anchorage-independent cell growth studies were performed for HT29, HCT116/p53^+/+ and HCT116/p53^-/- cells in semisolid agar which were monitored daily to determine the efficiency of the formation of colonies in the presence of carrier (DMSO) or FM19G11. To that end, the starting material was 75 x 10^3 cells suspended in semisolid agar, which were maintained until 10 days later. […] A reduction of the formation of colonies in the HCT116/p53^-/- cells is not observed. The growth of colonies was quantified in three independent experiments by means of counting colonies in the 4 x magnification optical field of an inverted optical microscope.

acetyltransferase p300 = target: T1, acetyltransferase p300 (Mus musculus, UniProt B2RWS6); experiment: HAT Colorimetric Assay after anti-p300 immunoprecipitation, C17.2 cells; type: cell-based; conditions: regardless of the percentage of oxygen
T1 construct: endogenous in cells; host or cells: C17.2 mouse neural stem cells
Description: Since FM19G11 was capable of affecting the degree of acetylation of histone H3 and therefore the conformation of chromatin, it was evaluated if FM19G11 favored the transfer of acetyl groups to histone H3 or, on the contrary, prevented histone H3 from being deacetylated. Both effects would cause an increase of the degree of acetylation of histone H3. Immunoprecipitation assays were performed with an antibody recognizing acetyltransferase p300 and then assays for measuring the acetyltransferase activity by means of using the kit "HAT Colorimetric Assay" (BioVision) were carried out. This method consists of detecting NADH since peptide acetylation causes the release of the free form of Coenzyme A, which serves as an essential coenzyme for producing NADH.
The protein extracts were previously immunoprecipitated with an anti-p300 antibody and the acetyltransferase activity measured by the detection of NADH. The evaluation of the histone deacetylase (HDAC) activity (Figure 34 B) was carried out with protein extracts of HeLa cells treated with different concentrations of FM19G11. As a positive control, a fixed concentration of TSA (1 µM) was included and extracts of untreated cells were used as a control. The experiments were carried out following the instructions of the Biomol kit for detecting histone deacetylase activity (HDAC Fluorimetric Cellular Activity Assay, Biomol, Cat. No. AK-503). […]

T1 sequence (B2RWS6 whole entry): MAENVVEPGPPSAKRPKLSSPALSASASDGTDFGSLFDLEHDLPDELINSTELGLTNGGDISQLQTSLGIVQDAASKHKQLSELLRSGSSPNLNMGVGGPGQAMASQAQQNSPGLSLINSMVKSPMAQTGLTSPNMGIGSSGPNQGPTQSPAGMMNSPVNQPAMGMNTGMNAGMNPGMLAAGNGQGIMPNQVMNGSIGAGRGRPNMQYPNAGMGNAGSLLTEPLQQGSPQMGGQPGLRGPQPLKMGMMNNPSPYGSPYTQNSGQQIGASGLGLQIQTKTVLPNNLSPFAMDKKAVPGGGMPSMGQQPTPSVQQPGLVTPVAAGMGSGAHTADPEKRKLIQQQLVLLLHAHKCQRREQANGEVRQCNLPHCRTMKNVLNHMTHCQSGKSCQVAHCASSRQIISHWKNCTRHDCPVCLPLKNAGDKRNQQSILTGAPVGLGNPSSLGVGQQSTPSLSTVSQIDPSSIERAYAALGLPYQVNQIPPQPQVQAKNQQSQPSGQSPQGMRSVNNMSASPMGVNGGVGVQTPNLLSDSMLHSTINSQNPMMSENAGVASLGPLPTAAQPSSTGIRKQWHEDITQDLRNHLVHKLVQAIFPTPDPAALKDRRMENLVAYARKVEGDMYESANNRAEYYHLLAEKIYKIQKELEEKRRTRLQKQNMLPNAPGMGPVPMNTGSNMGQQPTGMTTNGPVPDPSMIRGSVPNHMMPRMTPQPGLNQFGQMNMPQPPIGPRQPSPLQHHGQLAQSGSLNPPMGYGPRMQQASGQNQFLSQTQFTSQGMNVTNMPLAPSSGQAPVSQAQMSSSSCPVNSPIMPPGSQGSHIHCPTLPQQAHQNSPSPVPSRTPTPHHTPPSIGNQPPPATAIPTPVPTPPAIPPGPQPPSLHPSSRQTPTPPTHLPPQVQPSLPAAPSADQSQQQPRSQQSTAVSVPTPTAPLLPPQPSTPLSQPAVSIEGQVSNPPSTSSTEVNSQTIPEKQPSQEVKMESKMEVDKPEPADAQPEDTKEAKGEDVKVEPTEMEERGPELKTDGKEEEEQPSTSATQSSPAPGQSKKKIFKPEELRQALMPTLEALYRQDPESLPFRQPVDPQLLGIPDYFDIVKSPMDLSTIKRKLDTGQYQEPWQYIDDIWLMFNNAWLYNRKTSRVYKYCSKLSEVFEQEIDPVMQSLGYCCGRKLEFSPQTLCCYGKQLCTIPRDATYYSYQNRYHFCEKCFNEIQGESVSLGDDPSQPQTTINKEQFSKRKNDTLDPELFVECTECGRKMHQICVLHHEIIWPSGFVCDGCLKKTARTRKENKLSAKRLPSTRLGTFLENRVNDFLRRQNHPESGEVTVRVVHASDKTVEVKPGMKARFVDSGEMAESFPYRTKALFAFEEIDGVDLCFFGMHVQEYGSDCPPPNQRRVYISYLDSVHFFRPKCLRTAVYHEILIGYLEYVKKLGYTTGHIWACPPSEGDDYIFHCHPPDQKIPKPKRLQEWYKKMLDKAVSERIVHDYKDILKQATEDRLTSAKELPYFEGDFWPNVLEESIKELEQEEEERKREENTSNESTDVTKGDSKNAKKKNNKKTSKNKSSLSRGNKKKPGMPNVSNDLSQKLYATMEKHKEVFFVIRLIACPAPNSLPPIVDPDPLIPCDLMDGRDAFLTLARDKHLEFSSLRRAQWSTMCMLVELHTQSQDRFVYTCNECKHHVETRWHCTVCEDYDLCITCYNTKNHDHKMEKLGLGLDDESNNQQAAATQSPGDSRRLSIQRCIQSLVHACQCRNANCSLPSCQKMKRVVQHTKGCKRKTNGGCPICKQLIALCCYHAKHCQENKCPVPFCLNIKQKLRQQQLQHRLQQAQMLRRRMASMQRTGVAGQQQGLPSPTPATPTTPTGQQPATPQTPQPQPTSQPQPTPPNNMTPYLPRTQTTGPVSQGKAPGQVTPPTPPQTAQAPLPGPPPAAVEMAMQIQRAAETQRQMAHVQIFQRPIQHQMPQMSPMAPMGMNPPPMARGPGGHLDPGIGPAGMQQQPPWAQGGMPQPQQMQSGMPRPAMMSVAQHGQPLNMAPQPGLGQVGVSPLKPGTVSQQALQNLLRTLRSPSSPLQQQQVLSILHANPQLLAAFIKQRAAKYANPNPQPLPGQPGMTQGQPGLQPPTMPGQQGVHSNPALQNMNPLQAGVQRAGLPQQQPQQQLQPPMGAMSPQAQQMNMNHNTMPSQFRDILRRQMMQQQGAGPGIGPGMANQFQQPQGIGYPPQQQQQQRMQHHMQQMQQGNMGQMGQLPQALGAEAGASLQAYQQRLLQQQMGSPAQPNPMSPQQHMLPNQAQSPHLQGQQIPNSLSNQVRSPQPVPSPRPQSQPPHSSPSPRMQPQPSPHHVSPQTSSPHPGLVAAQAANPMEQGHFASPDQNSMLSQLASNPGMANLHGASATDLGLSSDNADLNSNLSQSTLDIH

## Cc1ccc(C(=O)COC(=O)c2cccc(NC(=O)c3ccc([N+](=O)[O-])cc3[N+](=O)[O-])c2)cc1 [FM19G11, 2-oxo-2-(p-tolyl)ethyl 3-((2,4-dinitro)benzamido)benzoate]
ATR
  phosphorylation of ATR: quick increase
HCT116/p53+/+ cells; 5 or 10 µM, after 72 hours, more evident after 6 days
  G1/S phase cycle arrest: caused G1/S phase cycle arrest
HCT116/p53+/+ cells; FM19G11 (10 µM) + rapamycin (100 pmol)
  S phase cycle arrest on simultaneous incubation with rapamycin: prevented
HCT116/p53-/-
  reduction of the formation of colonies in semisolid agar: not observed
Acetyltransferase p300
  acetyltransferase activity of the immunoprecipitated fraction: increase of the acetyltransferase activity

From patent publication EP2292587A1, “PHARMACEUTICAL COMPOSITION FOR INHIBITING THE TRANSCRIPTION FACTOR INDUCIBLE BY HYPOXIA, MODULATORS OF PATHOLOGICAL PROCESSES OF ANGIOGENESIS, ONCOGENESIS, INFLAMMATION, APOPTOSIS, AND CELLULAR THERAPY” (Fundacion De La Comunidad Valenciana Centro De …, priority 2008, dated 2009)
